≈ marks a conversion by molar mass, not a printed value. Where only a bound is given, the exact number is not on record here.

The term MIC denotes the lowest concentration that inhibits growth of the organism.

The first assay deals with S. hemolyticus. The assay is described as follows: MIC, test procedure as given supra. Format: cell-based. As to conditions: UC152, 20 h, S. hemolyticus UC 152; read-out: MIC. How it is done: (§1) The Minimal Inhibitory Concentration (MIC's) of both compounds Vs. aerobic bacteria is determined using a standard microplate broth-dilution method. Brain Heart Infusion (BHI-Difco) broth medium is used, and the plates are incubated at 37° C. for 20 hrs.
The Minimal Inhibitory Concentration (MIC's) of a representative number of the compounds prepared in Examples 2-8 follows. The test procedure is as given supra.
As for `CS[C@H]1O[C@H]([C@H](NC(=O)c2cccnc2Cl)[C@H](C)Cl)[C@H](O)[C@H](O)[C@H]1O` [U-45,657], the MIC worked out at 7.8 µg/mL (≈ 19 µM).
Same read-out and setting: next, `CS[C@H]1O[C@H]([C@H](NC(=O)c2ccccn2)[C@H](C)Cl)[C@H](O)[C@H](O)[C@H]1O` [U-45,863]: 2 µg/mL (≈ 5.31 µM); `CS[C@H]1O[C@H]([C@H](NC(=O)c2ccccn2)[C@H](C)O)[C@H](O)[C@H](O)[C@H]1O` [U-46,135]: 1000 µg/mL (≈ 2790 µM).

The next assay deals with Proteus vulgaris. Briefly: MIC vs. aerobic bacteria, microplate broth-dilution (BHI). Format: cell-based. The settings on record: Proteus vulgaris, UC93, 20 h, P. vulgaris UC 93; read-out: MIC. The procedure: as §1
For `CS[C@H]1O[C@H]([C@H](NC(=O)c2cccnc2Cl)[C@H](C)Cl)[C@H](O)[C@H](O)[C@H]1O` [U-45,657], the MIC is > 1000 µg/mL.
Same read-out and setting: to `CS[C@H]1O[C@H]([C@H](NC(=O)c2ccccn2)[C@H](C)Cl)[C@H](O)[C@H](O)[C@H]1O` [U-45,863] belongs > 1000 µg/mL; to `CS[C@H]1O[C@H]([C@H](NC(=O)c2ccccn2)[C@H](C)O)[C@H](O)[C@H](O)[C@H]1O` [U-46,135], > 1000 µg/mL.

For the next assay, the system named is Streptococcus faecalis. The description is as above. The settings on record: Enterococcus faecalis, UC694, 20 h, St. faecalis UC 694; read-out: MIC. Format: cell-based. The procedure:
as §1
For `CS[C@H]1O[C@H]([C@H](NC(=O)c2cccnc2Cl)[C@H](C)Cl)[C@H](O)[C@H](O)[C@H]1O` [U-45,657], the MIC is > 1000 µg/mL.
Consider `CS[C@H]1O[C@H]([C@H](NC(=O)c2ccccn2)[C@H](C)O)[C@H](O)[C@H](O)[C@H]1O` [U-46,135], for which the MIC is > 1000 µg/mL.

The test system of a further assay is Klebsiella pneumoniae. The description is as above. The format is cell-based. The settings on record: Klebsiella pneumoniae, UC58, 20 h, K. pneumoniae UC 58; read-out: MIC. The procedure:
as §1
Consider `CS[C@H]1O[C@H]([C@H](NC(=O)c2cccnc2Cl)[C@H](C)Cl)[C@H](O)[C@H](O)[C@H]1O` [U-45,657], for which the MIC is > 1000 µg/mL.
On the same count and under the same terms, next, `CS[C@H]1O[C@H]([C@H](NC(=O)c2ccccn2)[C@H](C)Cl)[C@H](O)[C@H](O)[C@H]1O` [U-45,863]: > 1000 µg/mL; `CS[C@H]1O[C@H]([C@H](NC(=O)c2ccccn2)[C@H](C)O)[C@H](O)[C@H](O)[C@H]1O` [U-46,135]: > 1000 µg/mL.

The test system of the next assay is Diplococcus pneumoniae. The description is as above. Format: cell-based. As to conditions: Streptococcus pneumoniae, UC41, 20 h, D. pneumoniae UC 41; read-out: MIC. The procedure:
as §1
As for `CS[C@H]1O[C@H]([C@H](NC(=O)c2ccccn2)[C@H](C)Cl)[C@H](O)[C@H](O)[C@H]1O` [U-45,863], the MIC turned out to be 62.5 µg/mL (≈ 166 µM).
Regarding `CS[C@H]1O[C@H]([C@H](NC(=O)c2ccccn2)[C@H](C)O)[C@H](O)[C@H](O)[C@H]1O` [U-46,135], the MIC is > 1000 µg/mL.

Another assay concerns Escherichia coli. The description is as above. The settings on record: UC45, 20 h, E. coli UC 45, read-out: MIC. Format: cell-based. How it is done: as §1
Consider `CS[C@H]1O[C@H]([C@H](NC(=O)c2cccnc2Cl)[C@H](C)Cl)[C@H](O)[C@H](O)[C@H]1O` [U-45,657], for which the MIC is > 1000 µg/mL.
`CS[C@H]1O[C@H]([C@H](NC(=O)c2ccccn2)[C@H](C)Cl)[C@H](O)[C@H](O)[C@H]1O` [U-45,863]: the MIC is > 1000 µg/mL.
Same read-out and setting: next, `CS[C@H]1O[C@H]([C@H](NC(=O)c2ccccn2)[C@H](C)O)[C@H](O)[C@H](O)[C@H]1O` [U-46,135]: > 1000 µg/mL.

In the next assay the test system is Salmonella schottmuelleri. Described as above. The format is cell-based. The settings on record: Salmonella, UC126, 20 h, S. schottmuelleri UC 126. The procedure: as §1
As for `CS[C@H]1O[C@H]([C@H](NC(=O)c2cccnc2Cl)[C@H](C)Cl)[C@H](O)[C@H](O)[C@H]1O` [U-45,657], the MIC is > 1000 µg/mL.
Same read-out and setting: next, `CS[C@H]1O[C@H]([C@H](NC(=O)c2ccccn2)[C@H](C)Cl)[C@H](O)[C@H](O)[C@H]1O` [U-45,863]: > 1000 µg/mL; `CS[C@H]1O[C@H]([C@H](NC(=O)c2ccccn2)[C@H](C)O)[C@H](O)[C@H](O)[C@H]1O` [U-46,135]: > 1000 µg/mL.

Another assay deals with Pseudomonas aeruginosa. Described as above. The format is cell-based. As to conditions: UC95, 20 h, Ps. aeruginosa UC 95, read-out: MIC. The procedure:
as §1
Take `CS[C@H]1O[C@H]([C@H](NC(=O)c2cccnc2Cl)[C@H](C)Cl)[C@H](O)[C@H](O)[C@H]1O` [U-45,657]: the MIC was > 1000 µg/mL.
Still for that read-out and setting: next, `CS[C@H]1O[C@H]([C@H](NC(=O)c2ccccn2)[C@H](C)Cl)[C@H](O)[C@H](O)[C@H]1O` [U-45,863]: > 1000 µg/mL; `CS[C@H]1O[C@H]([C@H](NC(=O)c2ccccn2)[C@H](C)O)[C@H](O)[C@H](O)[C@H]1O` [U-46,135]: > 1000 µg/mL.

The subject of the next assay is Staphylococcus aureus. The description is as above. The format is cell-based. As to conditions: Staphylococcus aureus, UC76, 20 h, S. aureus UC 76; read-out: MIC.
On to `CS[C@H]1O[C@H]([C@H](NC(=O)c2cccnc2Cl)[C@H](C)Cl)[C@H](O)[C@H](O)[C@H]1O` [U-45,657], for which the minimum inhibitory concentration (MIC) was 125 µg/mL (≈ 304 µM).
Turning to `CS[C@H]1O[C@H]([C@H](NC(=O)c2ccccn2)[C@H](C)Cl)[C@H](O)[C@H](O)[C@H]1O` [U-45,863], the MIC amounted to 62.5 µg/mL (≈ 166 µM).
Same read-out and setting: to `CS[C@H]1O[C@H]([C@H](NC(=O)c2ccccn2)[C@H](C)O)[C@H](O)[C@H](O)[C@H]1O` [U-46,135] belongs > 1000 µg/mL.

Still in this assay, the particulars now being: Staphylococcus aureus, UC570, 20 h, S. aureus UC 570; read-out: MIC.
Take `CS[C@H]1O[C@H]([C@H](NC(=O)c2cccnc2Cl)[C@H](C)Cl)[C@H](O)[C@H](O)[C@H]1O` [U-45,657]: the MIC was 250 µg/mL (≈ 608 µM).
For `CS[C@H]1O[C@H]([C@H](NC(=O)c2ccccn2)[C@H](C)O)[C@H](O)[C@H](O)[C@H]1O` [U-46,135], the MIC was > 1000 µg/mL.

The same assay, now with this note: Staphylococcus aureus, UC746, 20 h, S. aureus UC 746; read-out: MIC.
As for `CS[C@H]1O[C@H]([C@H](NC(=O)c2cccnc2Cl)[C@H](C)Cl)[C@H](O)[C@H](O)[C@H]1O` [U-45,657], the MIC is 250 µg/mL (≈ 608 µM).
Same read-out and setting: to `CS[C@H]1O[C@H]([C@H](NC(=O)c2ccccn2)[C@H](C)O)[C@H](O)[C@H](O)[C@H]1O` [U-46,135] belongs > 1000 µg/mL.
